In patent publication US20230322767A1, “ARYL SUBSTITUTED PYRROLO-PYRIDINONES AND THERAPEUTIC USES THEREOF” (Bayer Aktiengesellschaft, priority 2020, published 2023):

Key:
CSNK1D = CSNK1D (Homo sapiens (Human), UniProt P48730); assay: CSNK1D Assay (ADP-Glo, 1 μM ATP); format: biochemical; conditions: median, read-out: CSNK1D IC50 [mol/l] (median)
Method: CSNK1D-inhibitory activity of compounds of the present invention in presence of 1 μM adenosine-tri-phosphate (ATP) was quantified employing the CSNK1 D assay as described in the following paragraphs. In essence, the enzyme activity is measured by quantification of the adenosine-di-phosphate (ADP), which is generated as a co-product of the enzyme reaction, via the “ADP-Glo™ Kinase Assay” kit from the company Promega. This detection system works as follows: In a first step the ATP not consumed in the kinase reaction is quantitatively converted to cAMP employing an adenylate cyclase (“ADP-Glo-reagent”), then the adenylate cyclase is stopped and the ADP generated in the kinase reaction converted to ATP which generates in a luciferase-based reaction a glow-luminescence signal (“Kinase Detection Reagent”).
As substrate for the kinase reaction the biotinylated peptide Btn-Ahx-[…] (C-terminus in amide form) was used which can be purchased e.g. from the company Biosyntan (Berlin-Buch, Germany).
For the assay 50 nl of a 100 fold concentrated solution of the test compound in DMSO was pipetted into a white 1536-well microtiter plate (Greiner Bio-One, Frickenhausen, Germany), 2 μL of a solution of CSNK1D in aqueous assay buffer [50 mM HEPES pH 7.5, 10% (v/v) glycerol, 10 mM MgCl2, 50 mM NaCl, 1 mM dithiothreitol, 0.01% (w/v) bovine serum albumin, 0.01% (v/v) Triton X-100] were added and the mixture was incubated for 15 min at 22° C. to allow pre-binding of the test compounds to the enzyme before the start of the kinase reaction. […] The concentration of CSNK1D was adjusted depending of the activity of the enzyme lot and was chosen appropriate to have the assay in the linear range, a typical concentration is about 0.5 ng/μL. The reaction was stopped by the addition of 2.5 μL of “ADP-Glo-reagent” (1:1.5 fold diluted with water) and the resulting mixture was incubated at 22° C. for 1 h to convert the ATP not consumed in the kinase reaction completely […]. Subsequently 2.5 μL of the “kinase detection reagent” (1.2 fold more concentrated than recommended by the producer) were added, the resulting mixture was incubated at 22° C. for 1 h and then the luminescence measured with a suitable measurement instrument (e.g. Viewlux™ from Perkin-Elmer). The amount of emitted light was taken as a measure for the amount of ADP generated and thereby for the activity of the CSNK1D.

CSNK1A1 = CSNK1A1 (Homo sapiens (Human), UniProt P48729); assay: CSNK1A1 Assay 2 (ADP-Glo, 1 μM ATP); format: biochemical; conditions: median, read-out: CSNK1A1 Assay 2 IC50 [mol/l] (median)
Summary of the method: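 ADP-Glo luminescence, taken as ADP formed, reports activity against biotinylated phospho-peptide substrate biotin-Ahx-KRRRAL-pS-VASLPGL at 1 μM ATP.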

CSNK1A1, sequence (P48729 whole entry): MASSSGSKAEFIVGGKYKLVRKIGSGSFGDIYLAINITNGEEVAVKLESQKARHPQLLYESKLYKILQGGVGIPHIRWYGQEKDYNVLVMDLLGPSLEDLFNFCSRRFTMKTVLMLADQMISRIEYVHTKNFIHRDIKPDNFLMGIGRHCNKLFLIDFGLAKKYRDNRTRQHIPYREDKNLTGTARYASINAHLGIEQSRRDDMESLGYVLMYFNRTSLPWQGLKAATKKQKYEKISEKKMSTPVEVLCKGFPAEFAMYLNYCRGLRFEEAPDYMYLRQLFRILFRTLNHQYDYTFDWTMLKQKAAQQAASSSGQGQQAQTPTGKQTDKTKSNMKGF
CSNK1D, sequence (P48730 whole entry): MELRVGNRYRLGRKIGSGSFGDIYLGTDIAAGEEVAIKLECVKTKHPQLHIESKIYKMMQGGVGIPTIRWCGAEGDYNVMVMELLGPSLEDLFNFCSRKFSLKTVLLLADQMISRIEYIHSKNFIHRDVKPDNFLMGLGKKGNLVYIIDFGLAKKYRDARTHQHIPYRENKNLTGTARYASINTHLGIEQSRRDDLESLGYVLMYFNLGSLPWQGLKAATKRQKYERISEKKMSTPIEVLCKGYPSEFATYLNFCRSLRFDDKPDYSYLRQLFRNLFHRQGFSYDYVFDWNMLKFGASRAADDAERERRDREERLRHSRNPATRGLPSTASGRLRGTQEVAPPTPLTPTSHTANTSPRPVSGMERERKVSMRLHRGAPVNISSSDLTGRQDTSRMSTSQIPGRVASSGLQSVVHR

SMILES	IC50 (CSNK1D) [nM]	IC50 (CSNK1A1) [nM]
CC(C(=O)Nc1cc(-c2[nH]c3c(CC(F)(F)F)cn(C)c(=O)c3c2-c2ccc(F)cc2)ccn1)c1ccc(F)cc1 (single isomer, unassigned; (+)) [Example 24, (+)-2-(4-fluorophenyl)-N-{4-[3-(4-fluorophenyl)-5-methyl-4-oxo-7-(2,2,2-trifluoroethyl)-4,5-dihydro-1H-pyrrolo[3,2-c]pyridin-2-yl]pyridin-2-yl}propanamide]	4	4.5
Cc1cn(C)c(=O)c2c(-c3ccc(F)cc3)c(-c3ccnc(NC(=O)C(C)c4ccc(F)cc4)c3)[nH]c12 (single isomer, unassigned; (+)) [Example 32, (+)-2-(4-fluorophenyl)-N-{4-[3-(4-fluorophenyl)-5,7-dimethyl-4-oxo-4,5-dihydro-1H-pyrrolo[3,2-c]pyridin-2-yl]pyridin-2-yl}propanamide]	3.6	4.4
Cc1cn(C)c(=O)c2c(-c3ccc(F)cc3)c(-c3ccnc(NC(=O)C(CC(F)F)c4ccc(F)cc4)c3)[nH]c12 (single isomer, unassigned; (+)) [Example 36, (+)-4,4-difluoro-2-(4-fluorophenyl)-N-{4-[3-(4-fluorophenyl)-5,7-dimethyl-4-oxo-4,5-dihydro-1H-pyrrolo[3,2-c]pyridin-2-yl]pyridin-2-yl}butanamide]	3.5	3.5
CN1C(=O)c2c([nH]c(-c3ccnc(NC(=O)C(CC(F)F)c4ccc(F)cc4)c3)c2-c2ccccc2)CC12CCC2 (single isomer, unassigned; (+)) [Example 51, (+)-4,4-difluoro-2-(4-fluorophenyl)-N-[4-(5′-methyl-4′-oxo-3′-phenyl-1′,4′,5′,7′-tetrahydrospiro-[cyclobutane-1,6′-pyrrolo[3,2-c]pyridin]-2′-yl)pyridin-2-yl]butanamide]	2.4	1.8
CC(C(=O)Nc1cc(-c2[nH]c3c(c2-c2ccccc2)C(=O)N(C)C2(CCC2)C3)ccn1)c1ccc(F)cc1 (single isomer, unassigned; (+)) [Example 54, (+)-2-(4-fluorophenyl)-N-[4-(5′-methyl-4′-oxo-3′-phenyl-1′,4′,5′,7′-tetrahydrospiro[cyclobutane-1,6′-pyrrolo[3,2-c]pyridin]-2′-yl)pyridin-2-yl]propanamide]	3.6	1.6
CC(C(=O)Nc1cc(-c2[nH]c3c(CC(F)(F)F)cn(C)c(=O)c3c2-c2ccccc2)ccn1)c1ccc(F)cc1 (single isomer, unassigned; (-)) [Example 16, (−)-2-(4-fluorophenyl)-N-{4-[5-methyl-4-oxo-3-phenyl-7-(2,2,2-trifluoroethyl)-4,5-dihydro-1H-pyrrolo[3,2-c]pyridin-2-yl]pyridin-2-yl}propanamide]	4.4	7.7
Cn1cc(CC(F)(F)F)c2[nH]c(-c3ccnc(NC(=O)C(CC(F)F)c4ccc(F)cc4)c3)c(-c3ccccc3)c2c1=O (single isomer, unassigned; (-)) [Example 19, (−)-4,4-difluoro-2-(4-fluorophenyl)-N-{4-[5-methyl-4-oxo-3-phenyl-7-(2,2,2-trifluoroethyl)-4,5-dihydro-1H-pyrrolo[3,2-c]pyridin-2-yl]pyridin-2-yl}butanamide]	14	22
CC(C(=O)Nc1cc(-c2[nH]c3c(CC(F)(F)F)cn(C)c(=O)c3c2-c2ccc(F)cc2)ccn1)c1ccc(F)cc1 (single isomer, unassigned; (-)) [Example 23, (−)-2-(4-fluorophenyl)-N-{4-[3-(4-fluorophenyl)-5-methyl-4-oxo-7-(2,2,2-trifluoroethyl)-4,5-dihydro-1H-pyrrolo[3,2-c]pyridin-2-yl]pyridin-2-yl}propanamide]	37	85
Cc1cn(C)c(=O)c2c(-c3ccc(F)cc3)c(-c3ccnc(NC(=O)C(C)c4ccc(F)cc4)c3)[nH]c12 (single isomer, unassigned; (-)) [Example 31, (−)-2-(4-fluorophenyl)-N-{4-[3-(4-fluorophenyl)-5,7-dimethyl-4-oxo-4,5-dihydro-1H-pyrrolo[3,2-c]pyridin-2-yl]pyridin-2-yl}propanamide]	14	53
Cc1cn(C)c(=O)c2c(-c3ccc(F)cc3)c(-c3ccnc(NC(=O)C(CC(F)F)c4ccc(F)cc4)c3)[nH]c12 (single isomer, unassigned; (-)) [Example 35, (−)-4,4-difluoro-2-(4-fluorophenyl)-N-{4-[3-(4-fluorophenyl)-5,7-dimethyl-4-oxo-4,5-dihydro-1H-pyrrolo[3,2-c]pyridin-2-yl]pyridin-2-yl}butanamide]	22	66
CN1C(=O)c2c([nH]c(-c3ccnc(NC(=O)C(CC(F)F)c4ccc(F)cc4)c3)c2-c2ccccc2)CC12CCC2 (single isomer, unassigned; (-)) [Example 50, (−)-4,4-difluoro-2-(4-fluorophenyl)-N-[4-(5′-methyl-4′-oxo-3′-phenyl-1′,4′,5′,7′-tetrahydrospiro-[cyclobutane-1,6′-pyrrolo[3,2-c]pyridin]-2′-yl)pyridin-2-yl]butanamide]	9.8	12
CC(C(=O)Nc1cc(-c2[nH]c3c(c2-c2ccccc2)C(=O)N(C)C2(CCC2)C3)ccn1)c1ccc(F)cc1 (single isomer, unassigned; (-)) [Example 53, (−)-2-(4-fluorophenyl)-N-[4-(5′-methyl-4′-oxo-3′-phenyl-1′,4′,5′,7′-tetrahydrospiro[cyclobutane-1,6′-pyrrolo[3,2-c]pyridin]-2′-yl)pyridin-2-yl]propanamide]	16	21
CN1CCc2[nH]c(-c3ccnc(NC(=O)Cc4ccc(F)cc4)c3)c(-c3cccnc3)c2C1=O [Example 12, 2-(4-fluorophenyl)-N-{4-[5-methyl-4-oxo-3-(pyridin-3-yl)-4,5,6,7-tetrahydro-1H-pyrrolo[3,2-c]pyridin-2-yl]pyridin-2-yl}acetamide]	13	10
CC(C(=O)Nc1cc(-c2[nH]c3c(c2-c2ccccc2)C(=O)N(C)CC3CC(F)(F)F)ccn1)c1ccc(F)cc1 (stereo not drawn) [Example 13, 2-(4-fluorophenyl)-N-{4-[5-methyl-4-oxo-3-phenyl-7-(2,2,2-trifluoroethyl)-4,5,6,7-tetrahydro-1H-pyrrolo[3,2-c]pyridin-2-yl]pyridin-2-yl}propanamide]	3.9	3.5
CN1CC(CC(F)(F)F)c2[nH]c(-c3ccnc(NC(=O)C(CC(F)F)c4ccc(F)cc4)c3)c(-c3ccccc3)c2C1=O (stereo not drawn) [Example 17, 4,4-difluoro-2-(4-fluorophenyl)-N-{4-[5-methyl-4-oxo-3-phenyl-7-(2,2,2-trifluoroethyl)-4,5,6,7-tetrahydro-1H-pyrrolo[3,2-c]pyridin-2-yl]pyridin-2-yl}butanamide]	4.3	4.7
CC(C(=O)Nc1cc(-c2[nH]c3c(c2-c2ccc(F)cc2)C(=O)N(C)CC3CC(F)(F)F)ccn1)c1ccc(F)cc1 (stereo not drawn) [Example 21, 2-(4-fluorophenyl)-N-{4-[3-(4-fluorophenyl)-5-methyl-4-oxo-7-(2,2,2-trifluoroethyl)-4,5,6,7-tetrahydro-1H-pyrrolo[3,2-c]pyridin-2-yl]pyridin-2-yl}propanamide]	6.6	8.6
CN1CC(CC(F)(F)F)c2[nH]c(-c3ccnc(NC(=O)C(CC(F)F)c4ccc(F)cc4)c3)c(-c3ccc(F)cc3)c2C1=O (stereo not drawn) [Example 25, 4,4-difluoro-2-(4-fluorophenyl)-N-{4-[3-(4-fluorophenyl)-5-methyl-4-oxo-7-(2,2,2-trifluoroethyl)-4,5,6,7-tetrahydro-1H-pyrrolo[3,2-c]pyridin-2-yl]pyridin-2-yl}butanamide]	5	6.4
CC1CN(C)C(=O)c2c1[nH]c(-c1ccnc(NC(=O)C(C)c3ccc(F)cc3)c1)c2-c1ccc(F)cc1 (stereo not drawn) [Example 29, 2-(4-fluorophenyl)-N-{4-[3-(4-fluorophenyl)-5,7-dimethyl-4-oxo-4,5,6,7-tetrahydro-1H-pyrrolo[3,2-c]pyridin-2-yl]pyridin-2-yl}propanamide]	4.1	2.9
